The target in experiment [1] is liver alcohol dehydrogenase (LADH). Particulars: inhibit the activity of LADH enzyme, ref [1]; given in words only; cited from earlier work.
Experiment [2] deals with healthy individuals. Description: Alcohol metabolism in test persons after vodka, alcohol level measured with CA 2000 Digital Alcohol Detector every 30 minutes. In kind it is in vivo, human. Particulars: from comparing the fructose-containing and fructose-free compositions. As to the method: The study presented in Table 2 and 3 included 10 individuals (6 males and 4 females, 24-57 years old).
In the first study (Table 2A) the test persons were given 8 oz. (ca.2.4 dl) of vodka mixed with 6 dl Sprite (The Coca Cola Company). The alcohol was consumed within one hour. 45 minutes after alcohol consumption each person drank 500 ml water. The alcohol level was then measured as described under.
One week later, the same test persons were given the same amount of vodka and Sprite. 45 minutes after alcohol consumption each test person drank 500 ml of the composition of the present invention. The alcohol level was then measured as described under.
Both part of the second study (Table 2 B) was performed in the same way as described for the study presented […], with the exception that the test persons were given a 500 ml solution containing 90 g fructose, 90 mg caffeine and 500 mg vitamin C instead of the composition of the present invention. The alcohol level was again measured as described below.
The alcohol level (measured in 0/00) was measured with a CA 2000 Digital Alcohol Detector once every 30 minutes in each experiment. Each value is an average of four parallel measurements.

Consider `CC(=O)N[C@@H](CS)C(=O)O` [acetylcysteine], for which the Ki result in experiment [1] was “in the uM-mM area”. For `N[C@@H](CS)C(=O)O` [cysteine], the Ki entry in experiment [1] was “in the uM-mM area”. As for `O=C(CO)[C@@H](O)[C@H](O)[C@H](O)CO` [fructose], the “contribution to the acceleration of alcohol degradation” value in experiment [2] is 20-25%. Regarding `N[C@@H](CCC(=O)N[C@@H](CS)C(=O)NCC(=O)O)C(=O)O` [glutathione], in experiment [1], the Ki result was “in the uM-mM area”. As to `CSCC[C@H](N)C(=O)O` [methionine], the Ki result in experiment [1] is on record as “in the uM-mM area”.
